# Measurements taken from patent US12357620B2 (New York Medical College, priority 2019, dated 2025).
# Entries after “also recorded” stand apart in the source; their conditions may differ.
# Experiments:
# [1] = test system: circulating aged neutrophils (CANs); assay: Circulating aged neutrophils (CANs) by multicolor flow cytometry in SCD patients on rifaximin; assay type: in vivo, human
# Description: (§1) (ClinicalTrials.gov Identifier: NCT03719729). There were eight males and five females. Ten patients had HbSS, two HbSß^0thal, and one HbSC. Their median age was 29 years (range 24-56). The median number of VOC in the previous 12 months was 4.5 (range 2-13) and number of days needing intravenous opioid analgesia (IOA) was 25.5 days (range 8-198). In 12 of the 13 patients, the VOC was in the form of musculo-skeletal pain typical in distribution for the VOC that normally affected individual patients and in one patient, the VOC was predominantly in the form of recurrent priapism. Five of the patients were already taking hydroxyurea and none L-glutamine or on a transfusion program. Six patients were taking oral opioid at home for chronic pain. The study ran between November 2018 and early August 2019, covering the winter months when most of the patients reported having most frequent VOC. […] CANs were measured by multicolor flow cytometry. Neutrophils were gated by Gr-1^hi CD115^lo SSC^hi and CANs by CD62L^lo CXCR4^hi within the neutrophil population.
# [2] = test system: serum LPS; assay: Serum lipopolysaccharides (LPS), bacterial translocation, in SCD patients; assay type: in vivo, human; conditions: all treated patients vs pre-treatment; to levels comparable to controls without SCD
# [3] = test system: patients with SCD; assay: Quality of Life survey using the FANTLC questionnaire; assay type: in vivo, human
# Description: Four aspects of QoL issues were examined: Physical well-being, Social well-being, Emotional well-being, and Functional well-being. The scores for response for each of the question were on a scale of 0-4 (0=not at all; 4=very much). As a group, the median score for response to the question “I have pain” decreased from 3.5 to 2 (p=0.08). When the two patients who reported only slight pain before the study (score of 0 or 1) were excluded from the analysis, the median score decreased from 4 to 3 (p=0.04). Changes in the functional well-being of the subjects was examined. […] However, when three subjects were excluded who reported excellent functional well-being even before the study (scores of 3 o 4 for all 7 questions) from the analysis, there was an improvement in the functional well-being of the 9 patients, with the median composite score increased from 14 to 16 (p=0.06).
# [4] = test system: patients with SCD; assay: Clinical trial: laboratory analyses, tolerability and adverse events; assay type: in vivo, human
# Description: as §1
# (§2) Twelve of the 13 patients accrued to the study were evaluable for response. […] The mean self-reported medication compliance of the intended doses was 86% (range 50-100). The median number of VOC during the study period decreased from the expected 2.25 (range 1-6.5) per 6 months to 1 per 6 months (range 0-4) (p=0.003) (FIG. 8). […] Their self-reported medication compliance was 100%. The median decrease in days needing IOA over the six-month study-period was 9 (range 1-55), and the median % reduction was 82 (range 20-100) (p=0.008) (FIG. 9). Total number of days needing IOA was reduced from the expected 254 in six months to 98 during the study period. […] Reported adverse events: 1 case of self-limiting probable viral gastroenteritis (culture negative, C. diff negative by PCR) and 2 cases of increased thirst. Slight nausea was common in the first week.
# [5] = test system: Clostridium difficile; conditions: cited from earlier work
# [6] = test system: urinary 3-IS; assay: Urinary 3-IS, total intestinal microbial load, in SCD patients; assay type: in vivo, human; conditions: after being started on oral rifaximin
# [7] = test system: serum iFABP; assay: Serum intestinal Fatty Acid Binding Protein (iFABP), intestinal injury, in SCD patients; assay type: in vivo, human; conditions: 12 SCD patients following rifaximin; to levels comparable to controls without SCD
# [8] = test system: serum CD62L; assay: Serum CD62L, marker of neutrophil activation, in SCD patients; assay type: in vivo, human; conditions: SCD subjects following rifaximin treatment
# [9] = test system: patients with SCD; assay: Clinical trial NCT03719729: VOC episodes and days needing intravenous opioid analgesia; assay type: in vivo, human
# Description: as §1, §2
# [10] = test system: intestinal microbiome; assay: 16S rRNA analysis of stool specimens for changes in intestinal microbiome; assay type: in vivo, human; conditions: during vs pre-rifaximin treatment
# Description: Relative abundances were transformed with the additive log ratio (alr), prior to calculating the difference, to reduce the spurious correlations associated with compositional data. Positive differences signify increased abundance post treatment. Histograms represent the frequency of differences between during and pre-rifaximin treatment alr values, where an increase of abundance during treatment is indicated by a shift of the distribution towards the right.
smiles,measurement,setting,value
CO[C@H]1/C=C/O[C@@]2(C)Oc3c(C)c(O)c4c(O)c(c5c(nc6cc(C)ccn65)c4c3C2=O)NC(=O)/C(C)=C\C=C\[C@H](C)[C@H](O)[C@@H](C)[C@@H](O)[C@@H](C)[C@H](OC(C)=O)[C@@H]1C [rifaximin],median CANs after rifaximin therapy,"[1]; SCD patients, 550 mg twice a day, after 2-4 weeks, range 2.63-20.25, pre-treatment median 12.65% [range 6.07-40.05], two-tailed p=0.0036",4.55%
same,change in CANs after being started on rifaximin,"[1]; all twelve patients, after 2-4 weeks of rifaximin",marked reduction; also recorded: dramatic reduction
same,CANs at the three-month time-point,[1]; two patients whose CANs were analyzed,continued to decrease
same,change in serum LPS levels,[2],dropped significantly
same,median composite score of functional well-being,"[3]; 9 patients, three with excellent baseline excluded, before 14, p=0.06",16
same,"median score to the question ""I am enjoying the things I usually do for fun""","[3]; after three months of rifaximin, before 1, p=0.048",2.5
same,"median score to the question ""I am able to enjoy life""","[3]; after three months of rifaximin, before 2, p=0.026",2.5
same,"functional well-being, as a group",[3]; following rifaximin,not any significant difference
same,emotional and social well-being,[3]; following rifaximin therapy,No significant change
same,"median score for response to the question ""I have pain""","[3]; scale 0-4, as a group, before rifaximin 3.5, p=0.08",2
same,"median score ""I have pain"", two patients with only slight pain excluded","[3]; scale 0-4, before rifaximin 4, p=0.04",3
same,adverse event: increased thirst,"[4]; both, human, in vivo, 6 months",2 cases
same,adverse event: self-limiting probable viral gastroenteritis,"[4]; culture negative, C. diff negative by PCR, 12 patients",1 case
same,adverse event: slight nausea,"[4]; human, in vivo",common
same,change in bilirubin,"[4]; human, in vivo",did not show any significant change
same,change in haptoglobin,"[4]; human, in vivo",did not show any significant change
same,change in hemoglobin,"[4]; human, in vivo",did not show any significant change
same,change in serum lactate dehydrogenase,"[4]; human, in vivo",did not show any significant change
same,change in white cell counts,"[4]; human, in vivo",did not show any significant change
same,activity against Clostridium difficile,[5],has activities against Clostridium difficile
same,change in urinary 3-IS,[6],drops and drop
same,change in serum iFABP,[7],dropped significantly
same,change in serum CD62L,[8],drop and significant drop
same,median number of VOC during the study period,"[9]; 12 patients, six months of rifaximin, range 0-4, expected 2.25 (range 1-6.5) per 6 months, p=0.003",1 per 6 months
same,total number of days needing IOA during the study period,[9]; expected 254 in six months,98 days
same,response of the one patient whose VOC was predominantly priapism,[9]; self-reported medication compliance 100%,did not respond
same,median decrease in days needing IOA,"[9]; six-month study period vs expected, range 1-55",9 days
same,median % reduction in days needing IOA,"[9]; six-month study period vs expected, range 20-100, p=0.008",82%
same,abundance of Akkermansia in stool,[10],trend towards increased abundance
same,abundance of Bacteroides in stool,[10],increase in the abundance
same,abundance of Escherichia-Shigella in stool,[10],trend towards increased abundance
